{"source": "patent EP0107214A2", "about": "“Pharmaceutical compositions containing benzoyl-phenyl ureas with anti-tumour activity” (DUPHAR INTERNATIONAL RESEARCH B.V, priority 1982, dated 1984)", "key": {"[1]": {"tested_on": "B-16 malignant melanoma", "experiment": "B-16 malignant melanoma in C57BL/6 mice, tumor growth after intraperitoneal injection", "type": "in vivo", "experimental": "The compounds were tested by intraperitoneal injections of suspensions of the compounds in an aqueous solution of polyvinyl pyrrolidone.\nMice with malignant melanomas were injected with 20 mg or 40 mg diflubenzuron in suspension or with the suspension medium (blank).\nFinally compound 2) was given in doses of 20 mg each on days 0, 1 and 2.\nAnimals with growing tumors were treated with 100 mg of diflubenzuron alone (suspended in an aqueous solution of polyvinylpyrrolidone) or in combination with a metabolic inhibitor or a metabolic inducer according to the schedule given in Table XI."}, "[2]": {"tested_on": "melanoma B-16 cells", "experiment": "Malignant melanoma B-16 cells in vitro, cell count by Coulter Counter", "type": "cell-based", "conditions": "Mus musculus; for activity at 200 µg/mL / activity at 300 µg/mL / activity at 50 µg/mL: B16, 48 h; for activity at 200 µg/mL: 200 ug/ml; for activity at 500 µg/mL / activity at 5000 µg/mL: B16, 20 hours incubation, cells counted at 48 hours; for activity at 500 µg/mL: read-out: Percentage of controll cell growth when tested in an amount of 5 x 10^2 µg/ml; for activity at 5000 µg/mL: read-out: Percentage of controll cell growth when tested in an amount of 5 x 10^3 µg/ml; for activity at 300 µg/mL: 300 ug/ml; for activity at 50 µg/mL: 50 ug/ml", "experimental": "Cells of malignant melanomas B-16 grow as a monolayer. The doubling time of this type of cells in a cell--culture is 12 to 16 hours. For this experiment 6 multi-well tissue culture plates having a flat bottom with a surface area of 6 cm^2 appeared to be suitable and have been used.\nOn day 0 a quantity of melanoma B-16 cells were brought on the cell-culture plates.\nThe test compounds were sonicated and then incubated without cells for 3 hours at 37°C.\nThen the compound to be tested was administered to the plates with melanoma B-16 cells in the desired quantity (each test was done in triplicate). Thereafter the plates were incubated in a C02-incubator for 20 hours at 37°C. Then the incubation was stopped by removing the culture medium containing the test compound, the cells were washed twice, and fresh culture medium was added.\n48 Hours after starting the incubation step the number of cells on each plate was measured by means of a microcell Coulter Counter. The results so obtained have been expressed as \"percentage of controll cell growth\".\nIn the above experiment the compounds to be tested have been used in the form of a suspension. Since it is not quite clear how much of the active compounds is dissolved, the above results cannot be compared very well.\nTherefore a number of compounds has been dissolved in ethanol."}, "[3]": {"conditions": "dissolved in ethanol, read-out: Percentage of controll cell growth (solution)"}, "[4]": {"conditions": "suspension, read-out: Percentage of controll cell growth (suspension)"}, "[5]": {"conditions": "20 mg each on days 0, 1, 2, 3 and 4"}, "[6]": {"conditions": "100 mg total, 20 mg each on day 0, 1, 2, 3 and 4"}, "[7]": {"conditions": "10 mg each on days 0, 1, 2, 3 and 4"}}, "note": "Read-outs that look alike come from different tables or passages of the source.", "data": [{"molecule": "Cc1ccc2cc3c(ccc4ccccc43)c3c2c1CC3", "note": "[3-methylcholanthrene, 3-Methylcholanthrene, reference compound]", "values": [{"measurement": "% change in tumor mass day 1", "setting": "[1]; mouse, in vivo", "value": "122 (6) %"}, {"measurement": "% change in tumor mass day 2", "setting": "[1]; mouse, in vivo", "value": "223 (6) %"}, {"measurement": "% change in tumor mass day 3", "setting": "[1]; mouse, in vivo", "value": "364 (6) %"}, {"measurement": "% change in tumor mass day 4", "setting": "[1]; mouse, in vivo", "value": "417 (6) %"}, {"measurement": "% change in tumor mass day 5", "setting": "[1]; mouse, in vivo", "value": "363 (6) %"}]}, {"molecule": "O=C(NC(=O)c1c(F)cccc1F)Nc1cc(Cl)c(Oc2ncc(C(F)(F)F)cc2Cl)c(Cl)c1", "note": "[Compound 2, 1-(2,6-difluorobenzoyl)-3-[3,5-dichloro-4-(3-chloro-5--trifluoromethyl-2-pyridyloxy)phenyl]urea]", "values": [{"measurement": "Mean tumor Mass Day 1", "setting": "[1]; 20 mg each on days 0, 1 and 2", "value": 191}, {"measurement": "activity at 200 µg/mL", "setting": "[2]; [3]", "value": 72, "unit": "%"}, {"measurement": "activity at 200 µg/mL", "setting": "[2]; [4]", "value": 114, "unit": "%"}]}, {"molecule": "O=C(NC(=O)c1c(F)cccc1F)Nc1ccc(Oc2ccc(Cl)cc2)c(Cl)c1", "note": "[Compound 3, 1-(2,6-difluorobenzoyl)-3-[3-chloro-4-(4-chlorophenoxy)phenyl]urea]", "values": [{"measurement": "Mean tumor Mass Day 1", "setting": "[1]; [5]", "value": 127}, {"measurement": "activity at 500 µg/mL", "setting": "[2]; suspension", "value": 33, "unit": "%"}, {"measurement": "activity at 5000 µg/mL", "setting": "[2]; suspension", "value": 8, "unit": "%"}]}, {"molecule": "O=C(NC(=O)c1ccccc1Cl)Nc1ccc(Cl)cc1", "note": "[Compound 5, 1-(2-chlorobenzoyl)-3-(4-chlorophenyl)urea]", "values": [{"measurement": "Mean tumor Mass Day 1", "setting": "[1]; [5]", "value": 198}, {"measurement": "activity at 500 µg/mL", "setting": "[2]; suspension", "value": 98, "unit": "%"}, {"measurement": "activity at 5000 µg/mL", "setting": "[2]; suspension", "value": 86, "unit": "%"}]}, {"molecule": "O=C(NC(=O)c1ccccc1Cl)Nc1ccc(OC(F)(F)F)cc1", "note": "[Compound 6, l-(2-chlorobenzoyl)-3-(4-trifluoromethoxyphenyl)urea]", "values": [{"measurement": "Mean tumor Mass Day 1", "setting": "[1]; [5]", "value": 229}, {"measurement": "activity at 300 µg/mL", "setting": "[2]; [3]", "value": 95, "unit": "%"}, {"measurement": "activity at 300 µg/mL", "setting": "[2]; [4]", "value": 88, "unit": "%"}]}, {"molecule": "O=C(NC(=O)c1c(F)cccc1F)Nc1ccc(Cl)cc1O", "note": "[Compound 7]", "values": [{"measurement": "% change in tumor mass day 1", "setting": "[1]; [6]", "value": "-23.4 (12) %"}, {"measurement": "% change in tumor mass day 2", "setting": "[1]; [6]", "value": "-17.4 (12) %"}, {"measurement": "% change in tumor mass day 3", "setting": "[1]; [6]", "value": "25.1 (12) %"}, {"measurement": "% change in tumor mass day 4", "setting": "[1]; [6]", "value": "74.7 (10) %"}, {"measurement": "% change in tumor mass day 5", "setting": "[1]; [6]", "value": "127 (10) %"}, {"measurement": "% change in tumor mass on day 11", "setting": "[1]; [6]", "value": "699 (10) %"}, {"measurement": "antitumor effect compared with parent compound diflubenzuron (in words)", "setting": "[1]; [6]", "value": "more effective"}, {"measurement": "activity at 50 µg/mL", "setting": "[2]; [3]", "value": 39, "unit": "%"}, {"measurement": "activity at 50 µg/mL", "setting": "[2]; [4]", "value": 103, "unit": "%"}, {"measurement": "activity at 300 µg/mL", "setting": "[2]; [3]", "value": 0, "unit": "%"}, {"measurement": "activity at 300 µg/mL", "setting": "[2]; [4]", "value": 103, "unit": "%"}]}, {"molecule": "O=C(NC(=O)c1c(F)cccc1F)Nc1ccc(Cl)c(O)c1", "note": "[Compound 8, 1-(2,6-difluorobenzoyl)-3-(4-chloro-3-hydroxyphenyl)urea]", "values": [{"measurement": "% change in tumor mass day 1", "setting": "[1]; [6]", "value": "39.5 (12) %"}, {"measurement": "% change in tumor mass day 2", "setting": "[1]; [6]", "value": "52.4 (12) %"}, {"measurement": "% change in tumor mass day 3", "setting": "[1]; [6]", "value": "91.2 (12) %"}, {"measurement": "% change in tumor mass day 4", "setting": "[1]; [6]", "value": "149 (12) %"}, {"measurement": "% change in tumor mass day 5", "setting": "[1]; [6]", "value": "223 (12) %"}, {"measurement": "% change in tumor mass on day 11", "setting": "[1]; [6]", "value": "930 (12) %"}, {"measurement": "antitumor effect compared with parent compound diflubenzuron (in words)", "setting": "[1]; [6]", "value": "not active at all"}, {"measurement": "activity at 300 µg/mL", "setting": "[2]; [3]", "value": 0, "unit": "%"}, {"measurement": "activity at 300 µg/mL", "setting": "[2]; [4]", "value": 63, "unit": "%"}, {"measurement": "activity at 500 µg/mL", "setting": "[2]; suspension", "value": 51, "unit": "%"}, {"measurement": "activity at 5000 µg/mL", "setting": "[2]; suspension", "value": 53, "unit": "%"}]}, {"molecule": "O=C(NC(=O)c1ccccc1Cl)Nc1ccc(OC(F)(F)F)cc1O", "note": "[Compound 9, 1-(2-chlorobenzoyl)-3-(2-hydroxy-4-trifluoromethoxyphenyl)urea]", "values": [{"measurement": "activity at 500 µg/mL", "setting": "[2]; suspension", "value": 100, "unit": "%"}, {"measurement": "activity at 5000 µg/mL", "setting": "[2]; suspension", "value": 70, "unit": "%"}]}, {"molecule": "N#Cc1ccc(NC(=O)NC(=O)c2c(F)cccc2F)cc1", "note": "[Compound 10, l-(2,6-difluorobenzoyl)-3-(4-cyanophenyl)urea]", "values": [{"measurement": "Mean tumor Mass Day 1", "setting": "[1]; [5]", "value": 183}]}, {"molecule": "O=C(NC(=O)c1c(F)cccc1F)Nc1ccc(OC(F)(F)C(F)C(F)(F)F)cc1", "note": "(stereo not shown) [Compound 11]", "values": [{"measurement": "Mean tumor Mass Day 1", "setting": "[1]; [5]", "value": 193}]}, {"molecule": "O=C(NC(=O)c1c(F)cccc1F)Nc1ccc(O)cc1", "note": "[Compound 12, 1-(2,6-difluorobenzoyl)-3-(4 :aydroxyphenyl)urea]", "values": [{"measurement": "Mean tumor Mass Day 1", "setting": "[1]; [5]", "value": 148}]}, {"molecule": "O=C(NC(=O)c1c(F)cccc1F)Nc1ccc(C2CCCCC2)cc1", "note": "[Compound 13, l-(2,6-difluorobenzoyl)-3-(4-cyclohexylphenyl)urea]", "values": [{"measurement": "Mean tumor Mass Day 1", "setting": "[1]; [7]", "value": 205}]}, {"molecule": "O=C(NC(=O)c1c(F)cccc1F)Nc1ccc(Cl)c(Cl)c1", "note": "[Compound 15, 1-(2,6-difluorobenzoyl)-3-(3,4-dichlorophenyl)urea]", "values": [{"measurement": "Mean tumor Mass Day 1", "setting": "[1]; [5]", "value": 151}]}, {"molecule": "O=C(NC(=O)c1c(Cl)cccc1Cl)Nc1ccc(Cl)cc1", "note": "[Compound 17, 1-(2,6-dichlorobenzoyl)-3-(4-chlorophenyl)urea]", "values": [{"measurement": "Mean tumor Mass Day 1", "setting": "[1]; [7]", "value": 347}]}, {"molecule": "O=C(NC(=O)c1c(Cl)cccc1Cl)Nc1ccc(C(F)(F)F)cc1", "note": "[Compound 18, 1-(2,6-dichlorobenzoyl)-3-(4-trifluoromethylphenyl)urea]", "values": [{"measurement": "Mean tumor Mass Day 1", "setting": "[1]; [7]", "value": 314}]}, {"molecule": "O=C(NC(=O)c1ccccc1)Nc1ccc(Cl)cc1", "note": "[Compound 19, 1-benzoyl-3-(4-chlorophenyl)urea]", "values": [{"measurement": "Mean tumor Mass Day 1", "setting": "[1]; [5]", "value": 159}]}, {"molecule": "O=C(NC(=O)c1c(F)cccc1F)Nc1ccc(C(F)(F)F)cc1O", "note": "[Compound 20, 1-(2,6-difluorobenzoyl)-3-(2-hydroxy-4-trifluoromethylphenyl)urea]", "values": [{"measurement": "activity at 500 µg/mL", "setting": "[2]; suspension", "value": 91, "unit": "%"}, {"measurement": "activity at 5000 µg/mL", "setting": "[2]; suspension", "value": 81, "unit": "%"}]}, {"molecule": "O=C(NC(=O)c1ccccc1Cl)Nc1ccc(C(F)(F)F)cc1O", "note": "[Compound 21, 1-(2-chlorobenzoyl)-3-(2-hydroxy-4-trifluoromethylphenyl)urea]", "values": [{"measurement": "activity at 300 µg/mL", "setting": "[2]; [3]", "value": 43, "unit": "%"}, {"measurement": "activity at 300 µg/mL", "setting": "[2]; [4]", "value": 50, "unit": "%"}, {"measurement": "activity at 500 µg/mL", "setting": "[2]; suspension", "value": 101, "unit": "%"}, {"measurement": "activity at 5000 µg/mL", "setting": "[2]; suspension", "value": 71, "unit": "%"}]}]}
